{"source": "patent US20220082578A1", "about": "“METHOD OF Q[…]'S MAIN METABOLITES, PSILOCIN AND 4-HYDROXYINDOLE-3-ACETIC ACID, IN HUMAN PLASMA” (Universitätsspital Basel, priority 2020, published 2022)", "key": {"[1]": {"experiment": "Pharmacokinetics of psilocin and 4-HIAA in plasma of healthy volunteers after a single oral dose of 25 mg psilocybin (LC-MS/MS)", "type": "in vivo, human", "settings": "for Cmax / Tmax / AUC(0-t) / half-life: human; for Cmax / Tmax: po, 25 mg; for AUCLAST relative to AUCLAST of psilocin: 0-420 min", "method": "To examine the application of the developed method, psilocin and 4-HIAA concentrations were quantified in plasma samples of three healthy volunteers receiving a single oral dose of 25 mg psilocybin. This is a moderate to high dose currently used in clinical phase 2-3 studies. The study was approved by the Ethical Committee of Northwestern and Central Switzerland (EKNZ, BASEC ID: 2019-00223), registered at ClinicalTrials.gov (ID: NCT03912974), and conducted in accordance with the Declaration of Helsinki and International Conference on Harmonization Guidelines in Good Clinical Practice. All volunteers provided written informed consent prior to study participation.\nTo establish concentration time profiles, blood samples were collected in lithium heparin coated tubes at the following time points: 2 hours before and 0, 15, 30, 45, 60, 90, 120, 150, 180, 240, 300, 360, and 420 minutes after treatment. Blood samples were centrifuged for 10 minutes at 3000 rpm to obtain plasma, which was transferred into cryotubes. All samples were stored −80° C. until analysis.\nStudy, calibration, and QC samples were processed as described before. In addition, the total amount of glucuronide conjugated psilocin and 4-HIAA was determined similar to the protocol of Kamata et al. (2006). In brief, 5 μl of Escherichia coli deglucuronidase (3000 units/ml in water) was mixed with 50 μl plasma sample. An aliquot of 100 μl acetic acid buffer (0.1 M) was added to the mixture. The samples were incubated for 3 hours at 37° C. in a thermomixer (Eppendorf, Hamburg, Germany). Enzymatic reaction was terminated, and samples extracted by the addition of 150 μl methanol. The samples were vortex mixed and centrifuged as outlined above.\nFor each analytical run, a calibration line was analysed at the beginning and at the end of the measurements. In between, the study samples of the three volunteers were measured as well as triplicates of LLOQ, QCLOW, QCMID, and QCHIGH samples. Samples with a concentration below the LLOQ were marked as blq (below limit of quantification) and samples with concentrations above the ULOQ were diluted with blank plasma into the calibration range.\nThe concentration-time profile was plotted and the maximal plasma concentration (Cmax) and time to reach it (Tmax) were obtained graphically from the plots. Pharmacokinetic parameters were calculated using non-compartmental methods in Phoenix WinNonlin 8.3 (Certara, N.J., USA). The area under the plasma concentration time profile was calculated by using the linear trapezoidal rule from 0-420 min (AUCLAST). The elimination half-life (t1/2) was calculated by the equation\nwhere the elimination rate constant (λ) was the slope of log(C(t)) versus t determined in the terminal elimination phase."}, "[2]": {"experiment": "Stability of psilocin and 4-HIAA in plasma under different storage conditions", "type": "physicochemical", "settings": "human plasma, frozen at −20° C., thawed at room temperature", "method": "The stability of psilocin and 4-HIAA in plasma were investigated under different storage conditions. Seven replicates of LLOQ, QCLOW, QCMID, and QCHIGH samples were stored for 8 hours at room temperature (bench-top stability) and for 1 month at −20° C. (one-month stability). Moreover, the stability was assessed after three consecutive freeze and thaw cycles (freeze/thaw stability), thereby freezing the QC samples at −20° C. for at least 24 hours and thawing them afterwards at room temperature. The concentration of those stability test samples was calculated based on a freshly prepared calibration line. Samples were designated to be stable if the accuracy was between 85-115% (LLOQ: 80-120%) and the precision ≤15% (LLOQ: ≤20%)."}, "[3]": {"settings": "cited from earlier work"}, "[4]": {"settings": "plasma, average of three healthy volunteers, oral 25 mg psilocybin, read-out: maximal plasma level (Cmax)"}, "[5]": {"settings": "plasma, plasma, three healthy volunteers, oral dose of 25 mg psilocybin, read-out: Cmax ± SD"}, "[6]": {"settings": "plasma, three healthy volunteers, oral dose of 25 mg psilocybin"}, "[7]": {"settings": "area under the plasma concentration time curve until 7 h post treatment, oral 25 mg psilocybin"}, "[8]": {"settings": "after oral administration of psilocybin"}}, "note": "Read-outs that look alike come from different tables or passages of the source."}
{"molecule": "O=C(O)Cc1c[nH]c2cccc(O)c12", "note": "[4-HIAA, 4-hydroxyindole-3-acetic acid]", "values": [{"measurement": "Cmax", "setting": "[1]; [4]", "result": 137, "unit": "ng/mL"}, {"measurement": "Cmax", "setting": "[1]; [5]", "result": "137 ± 22", "unit": "ng/mL"}, {"measurement": "Tmax", "setting": "[1]; [6]", "result": "2 to 2.33", "unit": "h"}, {"measurement": "AUC(0-t)", "setting": "[1]; [7]", "result": 372, "unit": "ng·h/mL"}, {"measurement": "half-life", "setting": "[1]; [6]", "result": 2.32, "unit": "h"}, {"measurement": "AUCLAST relative to AUCLAST of psilocin", "setting": "[1]; oral 25 mg psilocybin", "result": "about 5 fold"}, {"measurement": "Tmax ± SD", "setting": "[1]; [6]", "result": "2 ± 1", "unit": "h"}, {"measurement": "accuracy of QC samples after three freeze and thaw cycles", "setting": "[2]", "result": "100-109%"}]}
{"molecule": "OCCc1c[nH]c2cccc(O)c12", "note": "[4-HTP, 4-hydroxytryptophol]", "values": [{"measurement": "plasma concentration (not detectable at limit of detection)", "setting": "[1]; plasma of volunteers who received 25 mg psilocybin", "result": "< 2.5", "unit": "ng/mL"}]}
{"molecule": "CN(C)CCc1c[nH]c2cccc(O[C@@H]3O[C@H](C(=O)O)[C@@H](O)[C@H](O)[C@H]3O)c12", "note": "[psilocin-glucuronide, psilocin-O-glucuronide]", "values": [{"measurement": "AUClast", "setting": "[1]; [7]", "result": 20631, "unit": "ng·min/mL"}, {"measurement": "maximal plasma level (Cmax)", "setting": "[1]; average of three healthy volunteers, oral 25 mg psilocybin", "result": 78.3, "unit": "ng/mL"}, {"measurement": "AUCLAST relative to AUCLAST of psilocin", "setting": "[1]; oral 25 mg psilocybin", "result": "5-6 fold"}, {"measurement": "Tmax ± SD", "setting": "[1]; [6]", "result": "roughly 220 min"}, {"measurement": "t1/2", "setting": "[1]; [6]", "result": "3.58 ± 1.2", "unit": "h"}, {"measurement": "Tmax ± SD", "setting": "[1]; plasma, three healthy volunteers, oral dose of 25 mg psilocybin, listed as Psilocin-glucuronide", "result": "3.67 ± 1.53", "unit": "h"}]}
{"molecule": "CN(C)CCc1c[nH]c2cccc(O)c12", "note": "[psilocin]", "values": [{"measurement": "Cmax", "setting": "[1]; [4]", "result": 19.2, "unit": "ng/mL"}, {"measurement": "Cmax", "setting": "[1]; [5]", "result": "19.2 ± 4", "unit": "ng/mL"}, {"measurement": "Tmax", "setting": "[1]; [6]", "result": "2 to 2.33", "unit": "h"}, {"measurement": "AUC(0-t)", "setting": "[1]; [7]", "result": 61.2, "unit": "ng·h/mL"}, {"measurement": "half-life", "setting": "[1]; [6]", "result": 2.12, "unit": "h"}, {"measurement": "Tmax ± SD", "setting": "[1]; [6]", "result": "2.33 ± 0.767", "unit": "h"}, {"measurement": "glucuronide conjugation in plasma", "setting": "[1]; samples reanalysed after deglucuronidation with Escherichia coli glucuronidase", "result": "underwent extensive 0-glucuronidation"}, {"measurement": "accuracy of QC samples after three freeze and thaw cycles", "setting": "[2]", "result": "105-108%"}, {"measurement": "elimination half-life", "setting": "[3]; [8]", "result": "2 to 3", "unit": "h"}, {"measurement": "peak concentrations in plasma", "setting": "[3]; [8]", "result": "10 to 40", "unit": "ng/mL"}, {"measurement": "time to peak plasma concentration", "setting": "[3]; [8]", "result": "1.5 to 2", "unit": "h"}, {"measurement": "fraction excreted from body as psilocin-O-glucuronide", "setting": "[3]; in vivo", "result": 80, "unit": "%"}]}
